Assay results reported in ChEMBL document CHEMBL1132081, “Design, synthesis, and structure-activity relationship studies of himbacine derived muscarinic receptor antagonists” (Bioorg Med Chem Lett, 1999).

How the values were obtained:
[1] = biological target: T1, Muscarinic acetylcholine receptor M2 (Homo sapiens, UniProt P08172); assay: Binding affinity towards human muscarinic M2 receptor in CHO-KI cells using [3H]- QNB as radioligand; type: cell-based
T1 sequence (P08172 whole entry): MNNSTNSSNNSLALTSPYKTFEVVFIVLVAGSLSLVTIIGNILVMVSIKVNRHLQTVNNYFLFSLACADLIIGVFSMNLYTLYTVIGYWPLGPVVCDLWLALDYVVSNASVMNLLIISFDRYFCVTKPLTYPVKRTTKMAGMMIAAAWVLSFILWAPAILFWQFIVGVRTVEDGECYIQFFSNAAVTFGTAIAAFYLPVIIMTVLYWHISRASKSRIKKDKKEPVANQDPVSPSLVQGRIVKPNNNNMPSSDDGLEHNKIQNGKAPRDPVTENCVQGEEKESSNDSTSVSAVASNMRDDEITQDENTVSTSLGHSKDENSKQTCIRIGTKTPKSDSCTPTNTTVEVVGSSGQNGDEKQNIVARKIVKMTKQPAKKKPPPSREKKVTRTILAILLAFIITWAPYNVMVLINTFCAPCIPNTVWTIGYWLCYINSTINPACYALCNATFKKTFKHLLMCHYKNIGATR

[2] = biological target: T2, Muscarinic acetylcholine receptor M1 (Homo sapiens, UniProt P11229); assay: Binding affinity towards human muscarinic M1 receptor in CHO-KI cells using [3H]- QNB as radioligand; type: cell-based
T2 sequence (P11229 whole entry): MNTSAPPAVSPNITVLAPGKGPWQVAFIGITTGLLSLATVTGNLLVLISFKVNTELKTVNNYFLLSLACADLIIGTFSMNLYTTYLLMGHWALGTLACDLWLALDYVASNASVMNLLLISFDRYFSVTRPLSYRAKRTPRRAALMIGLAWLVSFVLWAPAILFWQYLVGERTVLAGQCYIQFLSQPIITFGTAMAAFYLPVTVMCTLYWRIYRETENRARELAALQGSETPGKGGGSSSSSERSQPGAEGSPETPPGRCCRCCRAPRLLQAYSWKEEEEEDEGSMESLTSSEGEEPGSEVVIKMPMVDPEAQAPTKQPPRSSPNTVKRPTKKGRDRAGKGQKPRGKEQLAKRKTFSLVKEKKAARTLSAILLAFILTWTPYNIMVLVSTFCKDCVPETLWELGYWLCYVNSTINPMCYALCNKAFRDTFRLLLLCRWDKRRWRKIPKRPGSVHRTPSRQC

| SMILES | Ki [1] [nM] | Ki [2] [nM] |
| --- | --- | --- |
| C[C@@H]1OC(=O)[C@H]2C[C@H]3CCCC[C@@H]3[C@@H](CC[C@H]3CCC[C@H](C)N3C)[C@@H]12 | 32.2 | 4.3 |
| CC1CN(CCC[C@@H]2[C@H]3CCCC[C@@H]3C[C@@H]3C(=O)O[C@@H](C)[C@H]23)C(C)CN1 (stereo not given in full) | 570 | 353 |
| C[C@@H]1OC(=O)[C@H]2C[C@H]3CCCC[C@@H]3[C@@H](/C=C/[C@H]3CCC[C@H](C)N3C)[C@@H]12 [HIMBACINE] | 48.4 | 4.5 |
| C[C@@H]1OC(=O)[C@H]2C[C@H]3CCCC[C@@H]3[C@@H](CCCN3CCN(C(=O)OC(C)(C)C)CC3)[C@@H]12 | 485 | 445 |
| C[C@@H]1OC(=O)[C@H]2C[C@H]3CCCC[C@@H]3[C@@H](CCCN3CCNCC3)[C@@H]12 | > 42 | > 420 |
| C[C@@H]1OC(=O)[C@H]2C[C@H]3CCCC[C@@H]3[C@@H](CCCN3CCCCC3)[C@@H]12 | 352 | 427 |
| CC1CN(CCC[C@@H]2[C@H]3CCCC[C@@H]3C[C@@H]3C(=O)O[C@@H](C)[C@H]23)CC(C)N1 (stereo not given in full) | > 500 | 1360 |
| C[C@@H]1OC(=O)[C@H]2C[C@H]3CCCC[C@@H]3[C@@H](CCCN3CCN[C@@H](C)C3)[C@@H]12 | > 500 | 581 |
| C[C@@H]1OC(=O)[C@H]2C[C@H]3CCCC[C@@H]3[C@@H](CCCN3CCN(C4CCCCC4)CC3)[C@@H]12 | 520 | 464 |
| C[C@@H]1OC(=O)[C@H]2C[C@H]3CCCC[C@@H]3[C@@H](CCCN3CCN(C)CC3)[C@@H]12 | 595 | 579 |
| CC1CN(CCC[C@@H]2[C@H]3CCCC[C@@H]3C[C@@H]3C(=O)O[C@@H](C)[C@H]23)CC(C)O1 (stereo not given in full) | 376 | 601 |
| C[C@@H]1OC(=O)[C@H]2C[C@H]3CCCC[C@@H]3[C@@H](CCCN3CCC(N4CCCCC4)CC3)[C@@H]12 | 650 | 312 |
| C[C@@H]1OC(=O)[C@H]2C[C@H]3CCCC[C@@H]3[C@@H](CCCN3CCC(O)CC3)[C@@H]12 | > 280 | > 900 |
| C[C@@H]1CN(CCC[C@@H]2[C@H]3CCCC[C@@H]3C[C@@H]3C(=O)O[C@@H](C)[C@H]23)CCN1 | > 500 | 857 |

More lines, in order of falling Ki [1], values ahead:

| Ki [1] [nM] | Ki [2] [nM] | SMILES |
| --- | --- | --- |
| 312 | 376 | CC1CCCN(CCC[C@@H]2[C@H]3CCCC[C@@H]3C[C@@H]3C(=O)O[C@@H](C)[C@H]23)C1 (stereo not given in full) |
| 283 | 554 | CC1CCN(CCC[C@@H]2[C@H]3CCCC[C@@H]3C[C@@H]3C(=O)O[C@@H](C)[C@H]23)CC1 |
| 275 | 399 | CC1CCCCN1CCC[C@@H]1[C@H]2CCCC[C@@H]2C[C@@H]2C(=O)O[C@@H](C)[C@H]12 (stereo not given in full) |
| 224 | 416 | C[C@@H]1OC(=O)[C@H]2C[C@H]3CCCC[C@@H]3[C@@H](CCCN3CCCC(C)(C)C3)[C@@H]12 |
| 209 | 341 | CCC1CCCCN1CCC[C@@H]1[C@H]2CCCC[C@@H]2C[C@@H]2C(=O)O[C@@H](C)[C@H]12 (stereo not given in full) |
| 189 | 179 | C[C@@H]1OC(=O)[C@H]2C[C@H]3CCCC[C@@H]3[C@@H](CCCN3CCSCC3)[C@@H]12 |
| 184 | 304 | C[C@@H]1OC(=O)[C@H]2C[C@H]3CCCC[C@@H]3[C@@H](CCCN3CCc4ccccc4C3)[C@@H]12 |
| 148 | 1530 | C[C@@H]1OC(=O)[C@H]2C[C@H]3CCCC[C@@H]3[C@@H](CCCN3CCCC(O)C3)[C@@H]12 (stereo not given in full) |
| 51 | 222 | C[C@@H]1OC(=O)[C@H]2C[C@H]3CCCC[C@@H]3[C@@H](CCCN3CCOCC3)[C@@H]12 |
| 26 | 136 | C[C@@H]1OC(=O)[C@H]2C[C@H]3CCCC[C@@H]3[C@@H](CCCNC34CC5CC(CC(C5)C3)C4)[C@@H]12 |
| 13 | 38 | C[C@@H]1OC(=O)[C@H]2C[C@H]3CCCC[C@@H]3[C@@H](CCCN3CCCC4CCCCC43)[C@@H]12 (stereo not given in full) |
